Measured values reported in the supplement of paper PMC4862054.
“And” between values parts separate entries of the source, which are not always exact repeats. Identical values can stand only once.

Tests used:
Conditions in all cases: incubation time: 72 h
[1] = tested on: MDA-MB-436; test: drug sensitivity score (DSS), CellTiter-Glo (DSS (AUC-based score)); higher = stronger drug effect (viability inhibition or cytotoxicity); extreme values may be limits of the assay
Procedure, shortened: (§1)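 Breast cancer cells were seeded into 384-well plates containing compound at 5 concentrations in 10-fold steps over a compound-specific 10,000-fold range and incubated 72 h. After CellTox Green and CellTiter-Glo readings, each plate was normalised to 0.1 % DMSO and a positive kill control. The drug sensitivity score rests on the area under the fitted dose-response curve.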

[2] = tested on: MDA-MB-453; test: as above
Procedure, shortened: as §1

[3] = tested on: SK-BR-3; test: as above
Procedure, shortened: as §1

[4] = tested on: HDQ-P1; test: as above
Procedure, shortened: as §1

[5] = tested on: CAL-85-1; test: as above
Procedure, shortened: as §1

[6] = tested on: MCF-10A; test: as above
Procedure, shortened: as §1

[7] = tested on: MDA-MB-231; test: as above
Procedure, shortened: as §1

[8] = tested on: CAL-51; test: as above
Procedure, shortened: as §1

[9] = tested on: CAL-148; test: as above
Procedure, shortened: as §1

[10] = tested on: BT-474; test: as above
Procedure, shortened: as §1

[11] = tested on: HCC1599; test: as above
Procedure, shortened: as §1

[12] = tested on: MDA-MB-468; test: as above
Procedure, shortened: as §1

[13] = tested on: Hs578T; test: normalised viability (% of control), CellTiter-Blue; higher = more viable cells (about 100 = DMSO control)
Experimental: (§2)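 DSRT, CellTiter-Blue viability, 72 h incubation. Signal is normalised to DMSO and benzethonium chloride controls. Value is the normalised response at dose 3.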

[14] = tested on: MDA-MB-436; test: as above
Experimental: as §2

[15] = tested on: MDA-MB-453; test: as above
Experimental: as §2

[16] = tested on: SK-BR-3; test: as above
Experimental: as §2

[17] = tested on: HDQ-P1; test: as above
Experimental: as §2

[18] = tested on: CAL-85-1; test: as above
Experimental: as §2

[19] = tested on: CAL-120; test: as above
Experimental: as §2

[20] = tested on: HCC1937; test: as above
Experimental: as §2

[21] = tested on: BT-549; test: as above
Experimental: as §2

[22] = tested on: MDA-MB-231; test: as above
Experimental: as §2

[23] = tested on: CAL-51; test: as above
Experimental: as §2

[24] = tested on: MFM-223; test: as above
Experimental: as §2

[25] = tested on: CAL-148; test: as above
Experimental: as §2

[26] = tested on: BT-474; test: as above
Experimental: as §2

[27] = tested on: DU-4475; test: as above
Experimental: as §2

[28] = tested on: HCC1599; test: as above
Experimental: as §2

[29] = tested on: MDA-MB-468; test: as above
Experimental: as §2

Compound | drug sensitivity score [1] | drug sensitivity score [2] | drug sensitivity score [3] | drug sensitivity score [4] | drug sensitivity score [5] | drug sensitivity score [6] | drug sensitivity score [7] | drug sensitivity score [8] | drug sensitivity score [9] | drug sensitivity score [10] | drug sensitivity score [11] | drug sensitivity score [12] | normalised viability ([13]; 100 nM) | normalised viability ([14]; 100 nM) | normalised viability ([15]; 10 nM) | normalised viability ([16]; 100 nM) | normalised viability ([17]; 10 nM) | normalised viability ([18]; 10 nM) | normalised viability ([19]; 100 nM) | normalised viability ([20]; 100 nM) | also measured
Nc1cccc2c1CN(C1CCC(=O)NC1=O)C2=O (centres undefined) [Lenalidomide] | 0 | 0 | 0 | 0 | 0 | 0 | 0 | 0 | 0 | 0 | 0 | 0 | 85.7% and 86.3% | 80% and 93.4% | 93% and 103% | 73.6% and 88.2% | 101% and 93.8% | 88.2% and 90.5% | 71.4% and 84.9% | 92.2% and 102% | normalised viability ([21]; 100 nM): 92.2% and 101%; normalised viability ([22]; 100 nM): 88.9% and 87.4%; normalised viability ([23]; 10 nM): 106% and 104%; normalised viability ([24]; 100 nM): 91.3% and 90.2%; normalised viability ([25]; 10 nM): 88% and 92.2%; normalised viability ([26]; 100 nM): 115% and 94.3%; normalised viability ([27]; 10 nM): 103% and 112%; normalised viability ([28]; 100 nM): 117% and 96.9%; normalised viability ([29]; 100 nM): 100% and 94.2%
C[C@]12O[C@H](C[C@]1(O)CO)n1c3ccccc3c3c4c(c5c6ccccc6n2c5c31)CNC4=O [Lestaurtinib] | 3.31 | 5.26 | 8.99 | 2.59 | 4.38 | 8.64 | 2.14 | 0.729 | 0 | 3.87 | 7.24 | 11.8 | – | – | – | – | – | – | – | – | normalised viability ([13]; 10 nM): 83%; normalised viability ([14]; 10 nM): 103%; normalised viability ([15]; 1 nM): 98.7%; normalised viability ([16]; 10 nM): 91.3%; normalised viability ([17]; 1 nM): 113%; normalised viability ([18]; 1 nM): 99.7%; normalised viability ([19]; 10 nM): 103%; normalised viability ([20]; 10 nM): 79.5%; normalised viability ([21]; 10 nM): 106%; normalised viability ([22]; 10 nM): 110%; normalised viability ([23]; 1 nM): 115%; normalised viability ([24]; 10 nM): 107%; normalised viability ([25]; 1 nM): 101%; normalised viability ([26]; 10 nM): 127%; normalised viability ([27]; 1 nM): 109%; normalised viability ([28]; 10 nM): 102%; normalised viability ([29]; 10 nM): 92.9%
O=C1c2c(O)ccc(O)c2C(=O)c2c(NCCNCCO)ccc(NCCNCCO)c21 [Mitoxantrone] | 5.91 | 0 | 0 | 0.578 | 0 | 0 | 0 | 2.13 | 3.82 | 0 | 0 | 0 | – | – | – | – | – | – | – | – | normalised viability ([13]; 10 nM): 71.8%; normalised viability ([14]; 10 nM): 99.6%; normalised viability ([15]; 1 nM): 84.8%; normalised viability ([16]; 10 nM): 75.6%; normalised viability ([17]; 1 nM): 95%; normalised viability ([18]; 1 nM): 95.1%; normalised viability ([19]; 10 nM): 67.4%; normalised viability ([20]; 10 nM): 46.6%; normalised viability ([21]; 10 nM): 87.7%; normalised viability ([22]; 10 nM): 72.5%; normalised viability ([23]; 1 nM): 104%; normalised viability ([24]; 10 nM): 85.9%; normalised viability ([25]; 1 nM): 94.3%; normalised viability ([26]; 10 nM): 98.2%; normalised viability ([27]; 1 nM): 102%; normalised viability ([28]; 10 nM): 108%; normalised viability ([29]; 10 nM): 80.4%
Nc1ccccc1NC(=O)c1ccc(CNc2nccc(-c3cccnc3)n2)cc1 [Mocetinostat] | 5.31 | 9.7 | 8.95 | 4.52 | 6.32 | 1.13 | 6.07 | 8.93 | 7.02 | 6.06 | 5.88 | 8.18 | 80.8% | 81.2% | 94.2% | 83.9% | 117% | 91.2% | 53.6% | 79.2% | normalised viability ([21]; 100 nM): 81.6%; normalised viability ([22]; 100 nM): 84.3%; normalised viability ([23]; 10 nM): 98.2%; normalised viability ([24]; 100 nM): 80.7%; normalised viability ([25]; 10 nM): 111%; normalised viability ([26]; 100 nM): 95.1%; normalised viability ([27]; 10 nM): 91%; normalised viability ([28]; 100 nM): 86.9%; normalised viability ([29]; 100 nM): 129%
Cc1ccc(Nc2nccc(N(C)c3ccc4c(C)n(C)nc4c3)n2)cc1S(N)(=O)=O [Pazopanib] | 0 | 0 | 0 | 0 | 0 | 0 | 0 | 0 | 0 | 0 | 0 | 0 | 86.5% | 88.3% | 100% | 78.7% | 93.8% | 95.6% | 81.6% | 94% | normalised viability ([21]; 100 nM): 96.9%; normalised viability ([22]; 100 nM): 94.3%; normalised viability ([23]; 10 nM): 104%; normalised viability ([24]; 100 nM): 71.7%; normalised viability ([25]; 10 nM): 88.3%; normalised viability ([26]; 100 nM): 99.7%; normalised viability ([27]; 10 nM): 103%; normalised viability ([28]; 100 nM): 108%; normalised viability ([29]; 100 nM): 104%
O=C(CCBr)N1CCN(C(=O)CCBr)CC1 [Pipobroman] | 0 | 0 | 0 | 0 | 0 | 0 | 0 | 1.64 | 0 | 0 | 0 | 0 | 91.4% | 93% | 102% | 108% | 99.4% | 110% | 96% | 87.9% | normalised viability ([21]; 100 nM): 86.4%; normalised viability ([22]; 100 nM): 94.7%; normalised viability ([23]; 10 nM): 110%; normalised viability ([24]; 100 nM): 98.8%; normalised viability ([25]; 10 nM): 100%; normalised viability ([26]; 100 nM): 119%; normalised viability ([27]; 10 nM): 103%; normalised viability ([28]; 100 nM): 93.4%; normalised viability ([29]; 100 nM): 98%
